Test systems include A549 NSCLC; BT-549 breast; CCRF-CEM leukemia; COLO 205 colon; HCT-116 colon; HS 578T breast; OVCAR-5 ovarian; SF-268 CNS; SK-MEL-2 melanoma; UO-31 renal.
Common to all, as to assay: inhibition of tumour cell growth, NCI panel, 48 h

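Each compound was tested at five concentrations against cells in 96-well plates for 48 hours. The concentration for 50% growth inhibition is given as GI50. TGI marks complete inhibition of growth.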 Some results are limits rather than exact numbers.

In the case of `COc1ccc(-c2cc(-c3cccc(NS(C)(=O)=O)c3)nc(N)c2C#N)cc1`, the GI50 was 0.109 µM in the assay with A549 NSCLC; 0.127 µM in the assay with BT-549 breast; 0.0875 µM in the assay on CCRF-CEM leukemia; 0.0747 µM with COLO 205 colon; 0.0496 µM in the assay on HCT-116 colon; 0.0468 µM in the assay with HS 578T breast. Moreover, the GI50 in the assay on OVCAR-5 ovarian is 0.416 µM; in the assay with SF-268 CNS it was 0.281 µM; in the assay with SK-MEL-2 melanoma, 0.119 µM; in the assay on UO-31 renal, 0.124 µM. The TGI in the assay on A549 NSCLC is greater than 93.4 µM; in the assay on BT-549 breast, 12.3 µM; in the assay on CCRF-CEM leukemia, greater than 100 µM; in the assay with COLO 205 colon, 0.607 µM; with HCT-116 colon it was 8.73 µM; in the assay on HS 578T breast, 2.39 µM. Moreover, the TGI in the assay on OVCAR-5 ovarian is greater than 64.6 µM; with SF-268 CNS, 22 µM; in the assay on SK-MEL-2 melanoma, 14.6 µM; in the assay on UO-31 renal it was greater than 43.7 µM.
In the case of `CN(CC(=O)O)Cc1oc(CO)cc(=O)c1O`, the TGI in the assay on A549 NSCLC, with BT-549 breast, in the assay with CCRF-CEM leukemia, in the assay on COLO 205 colon, in the assay with HCT-116 colon and in the assay with HS 578T breast was greater than 100 µM in each case. Further, the TGI in the assay with OVCAR-5 ovarian, in the assay on SF-268 CNS, with SK-MEL-2 melanoma and with UO-31 renal was greater than 100 µM in each case.
`Clc1ccc(CNc2nccc(-c3cnn4ncccc34)n2)cc1`: the GI50 in the assay with A549 NSCLC is 7.66 µM; in the assay on BT-549 breast, 6.4 µM; with CCRF-CEM leukemia, 9.69 µM; in the assay on COLO 205 colon, 4.86 µM; with HCT-116 colon, 7.92 µM; in the assay with HS 578T breast it was 7.78 µM. The GI50 is 7.66 µM in the assay with OVCAR-5 ovarian, 7.25 µM in the assay on SF-268 CNS, 5.25 µM in the assay on SK-MEL-2 melanoma and 6.75 µM in the assay with UO-31 renal. Also, the TGI with A549 NSCLC was greater than 25 µM; with BT-549 breast, 14.7 µM; with CCRF-CEM leukemia, greater than 25 µM; in the assay with COLO 205 colon, 9.76 µM; in the assay with HCT-116 colon it was greater than 25 µM; with HS 578T breast it was greater than 23.5 µM. In addition, the TGI in the assay with OVCAR-5 ovarian is 24.7 µM; in the assay with SF-268 CNS, greater than 22.7 µM; in the assay with SK-MEL-2 melanoma it was 11.5 µM; in the assay with UO-31 renal it was greater than 19.5 µM.
For `O=C(CCSc1ccnc2c(C(F)(F)F)cccc12)N/N=C/c1cc(Cl)c(Cl)cc1Cl`, the GI50 was 24.8 µM in the assay on A549 NSCLC; 18 µM with BT-549 breast; 25.4 µM with CCRF-CEM leukemia; 24.6 µM in the assay with COLO 205 colon; 18.5 µM with HCT-116 colon; 23.9 µM in the assay on HS 578T breast. Moreover, the GI50 in the assay with OVCAR-5 ovarian was 26.1 µM; with SF-268 CNS it was 23.2 µM; in the assay on SK-MEL-2 melanoma it was 50.5 µM; with UO-31 renal, 20.6 µM. Further, the TGI was found to be 53.5 µM in the assay with A549 NSCLC; 38.9 µM in the assay with BT-549 breast; 62.1 µM in the assay with CCRF-CEM leukemia; 67.7 µM with COLO 205 colon; 32.5 µM with HCT-116 colon; 49.8 µM with HS 578T breast. Also, the TGI with OVCAR-5 ovarian is 64.6 µM; in the assay on SF-268 CNS it was 50.3 µM; with SK-MEL-2 melanoma it was greater than 100 µM; in the assay on UO-31 renal, 49.2 µM.
For `Cc1cc(N(CCCNc2ccnc3cc(Cl)ccc23)Cc2ccc3c(c2)OCO3)nc(N2CCCCC2)n1`, the GI50 was 2.62 µM in the assay with A549 NSCLC; 2.28 µM in the assay with BT-549 breast; 2.92 µM in the assay with CCRF-CEM leukemia; 1.66 µM in the assay with COLO 205 colon; 1.35 µM with HCT-116 colon; 1.78 µM in the assay with HS 578T breast. Further, the GI50 with OVCAR-5 ovarian is 2.44 µM; in the assay on SF-268 CNS it was 2.33 µM; in the assay on SK-MEL-2 melanoma, 1.94 µM; in the assay on UO-31 renal, 1.25 µM. Besides, the TGI with A549 NSCLC is 7.37 µM; in the assay on BT-549 breast it was 5.95 µM; in the assay on CCRF-CEM leukemia, greater than 100 µM; in the assay on COLO 205 colon, 3.33 µM; in the assay with HCT-116 colon, 3.28 µM; in the assay with HS 578T breast, 4.25 µM. Moreover, the TGI in the assay with OVCAR-5 ovarian was 7.04 µM; with SF-268 CNS, 6.21 µM; in the assay with SK-MEL-2 melanoma, 3.77 µM; with UO-31 renal, 2.82 µM.
With `O=C(COc1cccc(/C=C2\Oc3ccc4ccccc4c3C2=O)c1)c1ccc(Cl)cc1`, the GI50 with A549 NSCLC is greater than 100 µM; in the assay on BT-549 breast it was 20.5 µM; in the assay on CCRF-CEM leukemia, 2.92 µM; in the assay with COLO 205 colon, 33.6 µM; with HCT-116 colon, 2.97 µM; in the assay with HS 578T breast it was 50 µM. For the same compound, the GI50 with OVCAR-5 ovarian was greater than 100 µM; with SF-268 CNS it was 23.1 µM; in the assay on SK-MEL-2 melanoma, greater than 100 µM; with UO-31 renal, 50.2 µM. Moreover, the TGI is greater than 100 µM with A549 NSCLC; 61.7 µM in the assay on BT-549 breast; 8.39 µM with CCRF-CEM leukemia; greater than 100 µM in the assay on COLO 205 colon; 10.5 µM with HCT-116 colon; greater than 100 µM in the assay on HS 578T breast. For the same compound, the TGI in the assay on OVCAR-5 ovarian was greater than 100 µM; in the assay on SF-268 CNS, 79.5 µM; in the assay on SK-MEL-2 melanoma, greater than 100 µM; in the assay on UO-31 renal it was greater than 100 µM.
As to `C[C@@H](COCCC(=O)N1CCN(c2ncc(C(F)(F)F)cn2)CC1)Nc1cn[nH]c(=O)c1C(F)(F)F`, the GI50 was 45.7 µM in the assay on A549 NSCLC; 0.078 µM with BT-549 breast; 15 µM in the assay with CCRF-CEM leukemia; 98.6 µM in the assay on COLO 205 colon; 40.3 µM with HCT-116 colon; 50.7 µM in the assay with HS 578T breast. Moreover, the GI50 is greater than 100 µM with OVCAR-5 ovarian, 42.8 µM in the assay on SF-268 CNS, greater than 100 µM with SK-MEL-2 melanoma and 32.1 µM in the assay with UO-31 renal. For the same compound, the TGI in the assay on A549 NSCLC, in the assay on BT-549 breast, in the assay with CCRF-CEM leukemia, with COLO 205 colon, with HCT-116 colon and with HS 578T breast was greater than 100 µM in each case. Besides, the TGI in the assay with OVCAR-5 ovarian, in the assay on SF-268 CNS, in the assay on SK-MEL-2 melanoma and in the assay on UO-31 renal was greater than 100 µM each time.
On to `C=C(CNC(=O)c1ccccc1)c1ccc(C(=O)Nc2ccccc2N)cc1`, for which the GI50 is 9.52 µM in the assay on A549 NSCLC; 19.6 µM in the assay with BT-549 breast; 0.493 µM in the assay on CCRF-CEM leukemia; 5.88 µM in the assay with COLO 205 colon; 1.6 µM in the assay on HCT-116 colon; 20 µM with HS 578T breast. For the same compound, the GI50 with OVCAR-5 ovarian was 2.22 µM; with SF-268 CNS, 11.7 µM; in the assay on SK-MEL-2 melanoma, 5.2 µM; in the assay with UO-31 renal, 2.78 µM. Also, the TGI is greater than 100 µM in the assay with A549 NSCLC; greater than 100 µM in the assay on BT-549 breast; 8.38 µM in the assay with CCRF-CEM leukemia; greater than 100 µM with COLO 205 colon; 15.2 µM in the assay on HCT-116 colon; greater than 100 µM with HS 578T breast. In addition, the TGI with OVCAR-5 ovarian, in the assay on SF-268 CNS, with SK-MEL-2 melanoma and in the assay on UO-31 renal was greater than 100 µM throughout.

The record behind these values is PubChem BioAssay (NCI).
